We go through one molecule from ChEMBL document CHEMBL5512670 (J Med Chem, 2024).

Data set [1] in a line: Cmax in C57BL/6 mouse at 10 mg/kg,po administrated upto 24 hrs by LC-MS/MS analysis. In kind it is ADME, organism-based. As to conditions: in vivo.
Data set [2] in a line: AUC (0 to 24 hrs) in C57BL/6 mouse at 50 mg/kg,po administrated upto 24 hrs by LC-MS/MS analysis. In kind it is ADME, organism-based. The conditions noted are these: in vivo.
The nature of data set [3]: Dissociation constant, pKa of the compound. In kind it is physicochemical.
Data set [4] in a line: Drug metabolism in human liver microsomes assessed as metabolite formation. In kind it is ADME, Microsome. (Liver microsomes are vesicles of endoplasmic reticulum, rich in cytochrome P450 enzymes.)
The nature of data set [5]: Volume of distribution at steady state in Wistar rat at 1 mg/kg,po administration. In kind it is ADME, organism-based. As to conditions: in vivo.
Data set [6] can be described thus: Half life in Wistar rat at 1 mg/kg,po administration. In kind it is ADME, organism-based. The conditions noted are these: in vivo.
The nature of data set [7]: Clearance in Wistar rat plasma at 1 mg/kg,po administration. In kind it is ADME, organism-based.
A short description of data set [8]: Cmax in C57BL/6 mouse at 50 mg/kg,po administrated upto 24 hrs by LC-MS/MS analysis. In kind it is ADME, organism-based. The conditions noted are these: in vivo.
Data set [9] can be described thus: AUC (0 to 24 hrs) in C57BL/6 mouse at 10 mg/kg,po administrated upto 24 hrs by LC-MS/MS analysis. The conditions noted are these: in vivo. In kind it is ADME, organism-based.
The nature of data set [10]: Oral bioavailability in Wistar rat plasma at 50 mg/kg administration. In kind it is ADME, organism-based.
Data set [11] can be described thus: Drug concentration in Wistar rat plasma at 50 mg/kg,po administration. In kind it is ADME, organism-based. As to conditions: in vivo.
Data set [12] in a line: Drug metabolism in human Hepatocyte assessed as metabolite formation. In kind it is ADME, cell-based. As to conditions: hepatocytes.
A short description of data set [13]: Clearance in Wistar rat blood at 1 mg/kg,po administration. In kind it is ADME, organism-based.
Data set [14] in a line: Cmax in C57BL/6 mouse infected with Clostridioides difficile CD1264 at 10 mg/kg,po administrated upto 24 hrs by LC-MS/MS analysis. In kind it is ADME, organism-based. As to conditions: in vivo.
Data set [15] in a line: Lipophilicity, logD of the compound at pH 7.4. As to conditions: buffer. In kind it is physicochemical.
Data set [16] is described as follows: AUC (0 to infinity) in Wistar rat at 1 mg/kg,po administration. In kind it is ADME, organism-based. As to conditions: in vivo.
Data set [17] is described as follows: AUC (0 to 24 hrs) in C57BL/6 mouse infected with Clostridioides difficile CD1264 at 10 mg/kg,po administrated upto 24 hrs by LC-MS/MS analysis. In kind it is ADME, organism-based. As to conditions: in vivo.
The nature of data set [18]: AUC (0 to 24 hrs) in C57BL/6 mouse infected with Clostridioides difficile CD1264 at 50 mg/kg,po administrated upto 24 hrs by LC-MS/MS analysis. In kind it is ADME, organism-based. As to conditions: in vivo.
Data set [19] in a line: Cmax in C57BL/6 mouse infected with Clostridioides difficile CD1264 at 50 mg/kg,po administrated upto 24 hrs by LC-MS/MS analysis. In kind it is ADME, organism-based. The conditions noted are these: in vivo.

The Cmax is the highest concentration seen after dosing. A word on the AUC(0-t): it is the area under the concentration-time curve up to a stated or last time point. In general, pKa refers to the pH at which an ionisable group is half protonated. A low value points to a group that gives up its proton readily. What is called half-life is how long it takes for the measured level to halve. High values mean slow loss, low ones fast loss. Broadly, the CL/F is clearance divided by bioavailability, as obtained after extravascular dosing. What is called bioavailability is the share of a dose that reaches the circulation, judged against a reference dose that is usually intravenous. A higher bioavailability goes with good availability. In general, logD refers to lipophilicity at a set pH, counting ionised and neutral species. Read a high logD as a more lipophilic compound. The AUC(0-inf) is total exposure, with the tail of the curve extrapolated. In the case of `O=C(O)c1cn(C2CC2)c2cc(N3CCC(O)(COc4ccc(N5C[C@H](CO)OC5=O)cc4F)CC3)c(F)cc2c1=O` [CADAZOLID], the Cmax in data set [1] was 3 ng/mL; in [8] it was 6 ng/mL; in data set [14], 12 ng/mL; in data set [19], 10 ng/mL. Also, the AUC(0-t) at 24 h in data set [2] was 78 ng·h/mL; in [9], 9 ng·h/mL; in data set [17], 27 ng·h/mL; in [18], 147 ng·h/mL. In addition, the pKa in data set [3] was determined as 6. For the same molecule, the Drug metabolism entry in data set [4] and in data set [12] was “Metabolite_Notdetected” each time. Besides, in data set [5], the Vdss is 2 L/kg. This molecule had a half-life in [6] of 36 min. Further, the CL/F was 65 mL/min/kg in data set [7] and 96 mL/min/kg in data set [13]. This molecule also gave a bioavailability in data set [10] of 0%. In data set [11], this molecule yielded a Cp of 1 ng/mL. Also, in [15], the logD amounted to 1.2. The molecule further gave an AUC(0-inf) in data set [16] of 255 ng·h/mL.
